Measurements taken from patent US20220323455A1, “FUSED HETEROCYCLIC DERIVATIVES AS ANTIVIRAL AGENTS” (priority 2019, published 2022).

tested on: HBV; assay: HBV replication inhibition assay (BDNA assay) in HepG2.2.15 cells; assay type: cell-based, Hepatitis B virus; conditions: 6 days, encapsidated HBV DNA in supernatant
Procedure: HBV replication inhibition by the disclosed compounds were determined in cells infected or transfected with HBV or cells with stably integrated HBV, such as HepG2.2.15 cells (Sells et al. 1987). In this example, HepG2.2.15 cells were maintained in cell culture medium containing 10% fetal bovine serum (FBS), Geneticin, L-glutamine, penicillin and streptomycin. HepG2.2.15 cells were seeded in 96-well plates at a density of 40,000 cells/well and were treated with serially diluted compounds at a final DMSO concentration of 0.5% either alone or in combination by adding drugs in a checker box format. Cells were incubated with compounds for three days, after which medium was removed and fresh medium containing compounds was added to cells and incubated for another three days. At day 6, supernatant was removed and treated with DNase at 37° C. for 60 minutes, followed by enzyme inactivation at 75° C. for 15 minutes. Encapsidated HBV DNA was released from the virions and covalently linked HBV polymerase by incubating in lysis buffer (Affymetrix QS0010) containing 2.5 μg proteinase K at 50° C. for 40 minutes. HBV DNA was denatured by addition of 0.2 M NaOH and detected using a branched DNA (BDNA) QuantiGene assay kit according to manufacturer recommendation (Affymetrix). HBV DNA levels were also quantified using qPCR, based on amplification of encapsidated HBV DNA extraction with QuickExtraction Solution (Epicentre Biotechnologies) and amplification of HBV DNA using HBV specific PCR probes that can hybridize to HBV DNA and a fluorescently labeled probe for quantitation. In addition, cell viability of HepG2.2.15 cells incubated with test compounds alone or in combination was determined by using CellTitre-Glo reagent according to the manufacturer protocol (Promega). The mean background signal from wells containing only culture medium was subtracted from all other samples, and percent inhibition at each compound concentration was calculated by normalizing to signals from HepG2.2.15 cells treated with 0.5% DMSO using equation E1.
% inhibition(DMSOave−Xi)DMSOave×100% E1:
where DMSOave is the mean signal calculated from the wells that were treated with DMSO control (0% inhibition control) and Xi is the signal measured from the individual wells. EC50 values, effective concentrations that achieved 50% inhibitory effect, were determined by non-linear fitting using Graphpad Prism software (San Diego, Calif.) and equation E2.
Y=Ymin+(Ymax−Ymin)/(1+10(Log EC50−X)×HillSlope) E2:
where Y represents percent inhibition values and X represents the logarithm of compound concentrations.
Selected disclosed compounds were assayed in the HBV replication assay (BDNA assay), as described above, and a representative group of these active compounds is shown in Table 5.

Structure (SMILES)	EC50 [nM]
C[C@@H]1Cc2nn3c(c2CN1C(=O)Nc1ccnc(C(F)F)c1F)C(F)(F)CCC(O)(CC#N)C3 (single isomer, unassigned) [Example 92, (3R,8R*)-8-(Cyanomethyl)-N-(2-(difluoromethyl)-3-fluoropyridin-4-yl)-11,11-difluoro-8-hydroxy-3-methyl-3,4,8,9,10,11-hexahydro-1H-pyrido[4′,3′:3,4]pyrazolo[1,5-a]azepine-2(7H)-carboxamide]	191
O=C(Nc1ccnc(Br)c1F)N1CCc2nn3c(c2C1)C(F)(F)CCC(O)(COCC(F)F)C3 (single isomer, unassigned) [Example 35, (S*)—N-(2-Bromo-3-fluoropyridin-4-yl)-8-((2,2-difluoroethoxy)methyl)-11,11-difluoro-8-hydroxy-3,4,8,9,10,11-hexahydro-1H-pyrido[4′,3′:3,4]pyrazolo[1,5-a]azepine-2(7H)-carboxamide]	98
N#Cc1cc(NC(=O)N2CCc3nn4c(c3C2)C(F)(F)CCC(O)(COCC(F)F)C4)ccc1F (single isomer, unassigned) [Example 31, (R*)—N-(3-Cyano-4-fluorophenyl)-8-((2,2-difluoroethoxy)methyl)-11,11-difluoro-8-hydroxy-3,4,8,9,10,11-hexahydro-1H-pyrido[4′,3′:3,4]pyrazolo[1,5-a]azepine-2(7H)-carboxamide]	42
N#Cc1cc(NC(=O)N2CCc3nn4c(c3C2)C(F)(F)CC(O)CC4)ccc1F (single isomer, unassigned) [Example 141, (S*)—N-(3-Cyano-4-fluorophenyl)-11,11-difluoro-9-hydroxy-3,4,8,9,10,11-hexahydro-1H-pyrido[4′,3′:3,4]pyrazolo[1,5-a]azepine-2(7H)-carboxamide]	16
O=C(Nc1ccnc(Br)c1F)N1CCc2nn3c(c2C1)C(F)(F)CCC(O)(CF)C3 (single isomer, unassigned) [Example 39, (R*)—N-(2-Bromo-3-fluoropyridin-4-yl)-11,11-difluoro-8-(fluoromethyl)-8-hydroxy-3,4,8,9,10,11-hexahydro-1H-pyrido[4′,3′:3,4]pyrazolo[1,5-a]azepine-2(7H)-carboxamide]	144
O=C(Nc1ccc(F)c(C(F)(F)F)c1)N1CCc2nn3c(c2C1)C(F)(F)CCC(CO)C3 (single isomer, unassigned) [Example 24, (R*)-11,11-Difluoro-N-(4-fluoro-3-(trifluoromethyl)phenyl)-8-(hydroxymethyl)-3,4,8,91011-hexahydro-1H-pyrido[4′,3′:3,4]pyrazolo[1,5-a]azepine-2(7H)-carboxamide]	35
COC(=O)NCC1CCC(F)(F)c2c3c(nn2C1)C[C@@H](C)N(C(=O)Nc1ccc(F)c(C#N)c1)C3 (single isomer, unassigned) [Example 108, Methyl (((3R,8S*)-2-((3-cyano-4-fluorophenyl)carbamoyl)-11,11-difluoro-3-methyl-2,3,4,7,8,9,10,11-octahydro-1H-pyrido[4′,3′:3,4]pyrazolo[1,5-a]azepin-8-yl)methyl)carbamate]	12
COC(=O)NCC1CCC(F)(F)c2c3c(nn2C1)C[C@@H](C)N(C(=O)Nc1ccnc(C(F)F)c1F)C3 (single isomer, unassigned) [Example 107, Methyl (((3R,8R*)-2-((2-(difluoromethyl)-3-fluoropyridin-4-yl)carbamoyl)-11,11-difluoro-3-methyl-2,3,4,7,8,9,10,11-octahydro-1H-pyrido[4′,3′:3,4]pyrazolo[1,5-a]azepin-8-yl)methyl)carbamate]	8
C[C@@H]1Cc2nn3c(c2CN1C(=O)Nc1ccnc(Br)c1F)C(F)(F)CCC(CO)C3 (single isomer, unassigned) [Example 81, (3R,8R*)—N-(2-Bromo-3-fluoropyridin-4-yl)-11,11-difluoro-8-(hydroxymethyl)-3-methyl-3,4,8,9,10,11-hexahydro-1H-pyrido[4′,3′:3,4]pyrazolo[1,5-a]azepine-2(7H)-carboxamide]	2
C[C@@H]1Cc2nn3c(c2CN1C(=O)Nc1ccc(F)c(C#N)c1)C(F)(F)CCC(C(C)(C)O)C3 (single isomer, unassigned) [Example 103, (3R,8R*)—N-(3-Cyano-4-fluorophenyl)-11,11-difluoro-8-(2-hydroxypropan-2-yl)-3-methyl-3,4,8,9,10,11-hexahydro-1H-pyrido[4′,3′:3,4]pyrazolo[1,5-a]azepine-2(7H)-carboxamide]	18
O=C(Nc1ccnc(C(F)F)c1F)N1CCc2nn3c(c2C1)C(F)(F)CC(O)CC3 (single isomer, unassigned) [Example 142, (S*)—N-(2-(Difluoromethyl)-3-fluoropyridin-4-yl)-11,11-difluoro-9-hydroxy-3,4,8,9,10,11-hexahydro-1H-pyrido[4′,3′:3,4]pyrazolo[1,5-a]azepine-2(7H)-carboxamide]	46
C#CC1(O)CCC(F)(F)c2c3c(nn2C1)CCN(C(=O)Nc1ccc(F)c(C#N)c1)C3 (single isomer, unassigned) [Example 60, (S*)—N-(3-Cyano-4-fluorophenyl)-8-ethynyl-11,11-difluoro-8-hydroxy-3,4,8,9,10,11-hexahydro-1H-pyrido[4′,3′:3,4]pyrazolo[1,5-a]azepine-2(7H)-carboxamide]	17
C[C@@H]1Cc2nn3c(c2CN1C(=O)Nc1ccnc(C(F)F)c1F)C(F)(F)CCC(F)(CO)C3 (single isomer, unassigned) [Example 113, (3R,8S*)—N-(2-(Difluoromethyl)-3-fluoropyridin-4-yl)-8,11,11-trifluoro-8-(hydroxymethyl)-3-methyl-3,4,8,9,10,11-hexahydro-1H-pyrido[4′,3′:3,4]pyrazolo[1,5-a]azepine-2(7H)-carboxamide]	154
C[C@@H]1Cc2nn3c(c2CN1C(=O)Nc1ccnc(C(F)F)c1F)C(F)(F)CCC(F)(CO)C3 (single isomer, unassigned) [Example 116, (3R,8R*)—N-(2-(Difluoromethyl)-3-fluoropyridin-4-yl)-8,11,11-trifluoro-8-(hydroxymethyl)-3-methyl-3,4,8,9,10,11-hexahydro-1H-pyrido[4′,3′:3,4]pyrazolo[1,5-a]azepine-2(7H)-carboxamide]	10
N#Cc1c(F)ccc(NC(=O)N2CCc3nn4c(c3C2)C(F)(F)CCC(CO)C4)c1F (single isomer, unassigned) [Example 25, (R*)—N-(3-Cyano-2,4-difluorophenyl)-11,11-difluoro-8-(hydroxymethyl)-3,4,8,9,10,11-hexahydro-1H-pyrido[4′,3′:3,4]pyrazolo[1,5-a]azepine-2(7H)-carboxamide]	34
C[C@@H]1Cc2nn3c(c2CN1C(=O)Nc1ccnc(Br)c1F)C(F)(F)CCC(C(C)(C)O)C3 (single isomer, unassigned) [Example 102, (3R,8S*)—N-(2-Bromo-3-fluoropyridin-4-yl)-1111-difluoro-8-(2-hydroxypropan-2-yl)-3-methyl-3,4,8,9,10,11-hexahydro-1H-pyrido[4′,3′:3,4]pyrazolo[1,5-a]azepine-2(7H)-carboxamide]	88
O=C(Nc1ccnc(Br)c1F)N1CCc2nn3c(c2C1)C(F)(F)CC(O)CC3 (single isomer, unassigned) [Example 140, (S*)—N-(2-Bromo-3-fluoropyridin-4-yl)-11,11-difluoro-9-hydroxy-3,4,8,9,10,11-hexahydro-1H-pyrido[4′,3′:3,4]pyrazolo[1,5-a]azepine-2(7H)-carboxamide]	27

same assay, conditions: Hepatitis B virus, HepG2.2.15, 144 h, 6 days, encapsidated HBV DNA in supernatant

Structure (SMILES)	EC50 [nM]
C#CC1(O)CCC(F)(F)c2c3c(nn2C1)CCN(C(=O)Nc1ccnc(C(F)F)c1F)C3 (single isomer, unassigned) [Example 64, (R*)—N-(2-(Difluoromethyl)-3-fluoropyridin-4-yl)-8-ethynyl-11,11-difluoro-8-hydroxy-3,4,89,10,11-hexahydro-1H-pyrido[4′,3′:3,4]pyrazolo[1,5-a]azepine-2(7H)-carboxamide]	143
CCC1(O)CCC(F)(F)c2c3c(nn2C1)CCN(C(=O)Nc1ccc(F)c(C#N)c1)C3 (single isomer, unassigned) [Example 61, (S*)—N-(3-Cyano-4-fluorophenyl)-8-ethyl-11,11-difluoro-8-hydroxy-3,4,8,9,10,11-hexahydro-1H-pyrido[4′,3′:3,4]pyrazolo[1,5-a]azepine-2(7H)-carboxamide]	40
CC1Cc2nn3c(c2CN1C(=O)Nc1ccc(F)c(C#N)c1)C(F)(F)C[C@H](CO)CC3 (some centres unmarked) [Example 131]	3
